The results in this text go back to ChEMBL document CHEMBL1201862, “PubChem BioAssay data set” (2004).

Some test systems named below: LOX IMVI; SR; HCC 2998; NCI-H460; SNB-19; HT-29; OVCAR-8; NCI/ADR-RES; T47D; SNB-75; UO-31; NCI-H23; IGROV-1; UACC-62; Malme-3M.
Holding throughout (assay): inhibition of tumour cell growth, NCI panel, 48 h

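Dose response: 5 concentrations. Exposure: 48 h. Format: 96-well plates. Endpoint: linear interpolation; highest concentration if not reached. GI50 marks 50% less growth.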 Calls of active or inactive are those of the source. Cut-off read from the data, not from the text of the source: active = GI50 up to about 1.1 µM and inactive = higher.

Take `Cc1ccc(S(=O)(=O)N2CCCN(S(=O)(=O)c3ccc(C)cc3)CC2)cc1`: the GI50 is 0.0578 µM (active) with LOX IMVI; > 100 µM (inactive) in the experiment on SR; > 100 µM (inactive) in the experiment on HCC 2998; > 100 µM (inactive) with NCI-H460; > 100 µM (inactive) in the experiment on SNB-19; > 100 µM (inactive) with HT-29. The GI50 in the experiment with OVCAR-8, in the experiment with NCI/ADR-RES, in the experiment with T47D, with SNB-75, in the experiment on UO-31 and in the experiment with NCI-H23 was > 100 µM (inactive) each time.

With `O=C1CCC(NC(=O)c2ccccc2)C(=O)N1` (stereo unspecified), the GI50 with IGROV-1, in the experiment with LOX IMVI, in the experiment on UACC-62, in the experiment on SR, with HCC 2998 and with NCI-H460 was > 100 µM (inactive) in each case. Also, the GI50 with SNB-19, in the experiment with HT-29, in the experiment with OVCAR-8, with NCI/ADR-RES, with T47D and in the experiment on SNB-75 was > 100 µM (inactive) throughout. Moreover, the GI50 with Malme-3M, in the experiment with UO-31 and in the experiment with NCI-H23 was > 100 µM (inactive) throughout.

`O=C1c2ccccc2CC12Cc1cc3c(cc1C2)CCC3`: the GI50 in the experiment with IGROV-1 is 87.3 µM (inactive); with LOX IMVI it was 57.1 µM (inactive); in the experiment with SR, 16.7 µM (inactive); in the experiment on HCC 2998, 57.5 µM (inactive); in the experiment with NCI-H460, 39.9 µM (inactive); in the experiment on SNB-19, > 100 µM (inactive). The GI50 in the experiment on HT-29 is 21.9 µM (inactive); in the experiment on OVCAR-8, > 100 µM (inactive); in the experiment with NCI/ADR-RES it was 44 µM (inactive); in the experiment on T47D it was > 100 µM (inactive); in the experiment with SNB-75, 33.3 µM (inactive); in the experiment on Malme-3M, 22.7 µM (inactive). The GI50 with UO-31 was 69.3 µM (inactive); with NCI-H23, > 100 µM (inactive).

Take `COc1ccc2nc3c([N+](=O)[O-])ccc4c3c(c2c1)N=CN4CCCN(C)C`: the GI50 was 0.855 µM (active) in the experiment with IGROV-1; 2.01 µM (inactive) in the experiment on LOX IMVI; 6.24 µM (inactive) in the experiment on UACC-62; 0.125 µM (active) in the experiment on SR; 1.37 µM (inactive) in the experiment with HCC 2998; 0.773 µM (active) in the experiment on NCI-H460. The GI50 with SNB-19 is 4.74 µM (inactive); in the experiment with HT-29, 0.57 µM (active); in the experiment with OVCAR-8, 1.3 µM (inactive); with NCI/ADR-RES, 2.32 µM (inactive); in the experiment with T47D, 11.5 µM (inactive); in the experiment on SNB-75 it was 2.67 µM (inactive). For the same compound, the GI50 with Malme-3M was 6.3 µM (inactive); in the experiment on UO-31, 2.38 µM (inactive); in the experiment on NCI-H23, 4.27 µM (inactive).

`Oc1cc(Cl)cc2cccnc12`: the GI50 in the experiment with IGROV-1 was 0.986 µM (active); with LOX IMVI it was 0.625 µM (active); in the experiment with UACC-62, 1.01 µM (active); in the experiment on SR, 0.449 µM (active); in the experiment on HCC 2998, 24.5 µM (inactive); in the experiment with NCI-H460, 1.44 µM (inactive). Moreover, the GI50 was 5.94 µM (inactive) with SNB-19; 9.31 µM (inactive) with HT-29; 0.528 µM (active) with OVCAR-8; 0.354 µM (active) with NCI/ADR-RES; 2.25 µM (inactive) with T47D; 17.2 µM (inactive) in the experiment with SNB-75. The GI50 is 3.02 µM (inactive) with Malme-3M, 0.847 µM (active) in the experiment with UO-31 and 1.29 µM (inactive) in the experiment on NCI-H23.

Turning to `CN1CCN(c2ccc3c(c2)NCC(=O)N3)CC1`, the GI50 in the experiment with IGROV-1, with LOX IMVI, in the experiment on UACC-62, in the experiment on SR, in the experiment on HCC 2998 and in the experiment on NCI-H460 was > 100 µM (inactive) each time. The GI50 with SNB-19, in the experiment with HT-29, in the experiment with OVCAR-8, in the experiment on NCI/ADR-RES, in the experiment with T47D and in the experiment with SNB-75 was > 100 µM (inactive) each time. In addition, the GI50 in the experiment on Malme-3M, in the experiment with UO-31 and with NCI-H23 was > 100 µM (inactive) throughout.

Take `C=C1C(=O)O[C@H]2C/C(C=O)=C\[C@H]3O[C@H]3/C(COC(=O)C(C)C)=C/CC12` (stereo partly specified): the GI50 in the experiment on IGROV-1 was 4.65 µM (inactive); with LOX IMVI, 3.21 µM (inactive); with UACC-62, 2.2 µM (inactive); with SR it was 2.3 µM (inactive); in the experiment with HCC 2998, 13.4 µM (inactive); with NCI-H460 it was 10.5 µM (inactive). In addition, the GI50 was 15.8 µM (inactive) with SNB-19; 3.07 µM (inactive) in the experiment on HT-29; 3.14 µM (inactive) with OVCAR-8; 6.34 µM (inactive) in the experiment on NCI/ADR-RES; 3.54 µM (inactive) with T47D; 10.3 µM (inactive) with Malme-3M. For the same compound, the results for the GI50 in the experiment on UO-31 and with NCI-H23 were 5.58 µM (inactive) and 4.97 µM (inactive), respectively.

Take `COc1c(C(=O)/C(=N/Nc2cccc(Cl)c2)C(C)=O)c(O)c(OC)c2occc12`: the GI50 was > 100 µM (inactive) in the experiment on IGROV-1; 56.4 µM (inactive) with LOX IMVI; > 100 µM (inactive) with UACC-62; > 100 µM (inactive) with SR; 31.5 µM (inactive) in the experiment with HCC 2998; 65.8 µM (inactive) with NCI-H460. The GI50 in the experiment on SNB-19 was > 100 µM (inactive); with HT-29, 95.1 µM (inactive); with OVCAR-8, 60.4 µM (inactive); in the experiment on NCI/ADR-RES, > 100 µM (inactive); with T47D, 50.8 µM (inactive); in the experiment with SNB-75, 13 µM (inactive). Moreover, the values for the GI50 in the experiment on Malme-3M, in the experiment on UO-31 and with NCI-H23 were 60.1 µM (inactive), 37.2 µM (inactive) and > 100 µM (inactive), respectively.

Consider `C=C1CC(C)(COc2ccc3ccc(=O)oc3c2)OC1=O` (stereo unspecified), for which the GI50 was 2.93 µM (inactive) in the experiment on IGROV-1; 1.35 µM (inactive) in the experiment with LOX IMVI; 2.94 µM (inactive) with UACC-62; 1.08 µM (active) in the experiment on SR; 2.18 µM (inactive) with HCC 2998; 6.62 µM (inactive) in the experiment with NCI-H460. Moreover, the GI50 was 18.7 µM (inactive) in the experiment on SNB-19; 1.57 µM (inactive) with HT-29; 4.72 µM (inactive) in the experiment with OVCAR-8; 1.04 µM (active) in the experiment on NCI/ADR-RES; 3.66 µM (inactive) in the experiment with T47D; 9.57 µM (inactive) in the experiment on SNB-75. The results for the GI50 with Malme-3M, in the experiment with UO-31 and with NCI-H23 were 1.01 µM (active), 15.8 µM (inactive) and 2.29 µM (inactive), respectively.

`C=C1C(=O)O[C@@]23C1CC[C@@H](C)C2CC[C@@]1(C)OC31` (stereo partly specified): the GI50 is 11.7 µM (inactive) with IGROV-1; 11.5 µM (inactive) in the experiment with LOX IMVI; 12.1 µM (inactive) in the experiment on UACC-62; 3.71 µM (inactive) in the experiment on SR; 4.9 µM (inactive) in the experiment on HCC 2998; 16.4 µM (inactive) in the experiment on NCI-H460. In addition, the GI50 was 18.6 µM (inactive) in the experiment on SNB-19; 5.86 µM (inactive) in the experiment on HT-29; 16.9 µM (inactive) with OVCAR-8; 16.8 µM (inactive) with NCI/ADR-RES; 4.03 µM (inactive) in the experiment on T47D; 3.13 µM (inactive) in the experiment with SNB-75. Besides, the GI50 is 2.08 µM (inactive) in the experiment on Malme-3M, 5.69 µM (inactive) in the experiment with UO-31 and 7.18 µM (inactive) in the experiment with NCI-H23.

In the case of `Cc1cc(N(CCC#N)CCC#N)ccc1C(/N=N/c1ccc(Cl)cc1)=N\NC(=O)c1ccccc1`, the GI50 was 24.5 µM (inactive) in the experiment on IGROV-1; 29.8 µM (inactive) in the experiment with UACC-62; 9.59 µM (inactive) in the experiment on SR; 31 µM (inactive) in the experiment with HCC 2998; 39.7 µM (inactive) in the experiment on NCI-H460; 41.9 µM (inactive) with SNB-19. Besides, the GI50 in the experiment with HT-29 was 20.5 µM (inactive); in the experiment on OVCAR-8, 42.1 µM (inactive); in the experiment on NCI/ADR-RES, 27.4 µM (inactive); in the experiment with T47D it was 24.5 µM (inactive); with SNB-75 it was 49.5 µM (inactive); in the experiment on Malme-3M it was 20.4 µM (inactive). The GI50 was 67.6 µM (inactive) in the experiment on UO-31 and 33.7 µM (inactive) in the experiment with NCI-H23.

In the case of `CC(=O)OC(C)(C)CCC(=O)[C@](C)(O)[C@H]1[C@H](O)C[C@@]2(C)[C@@H]3CC=C4C(C)=C(OC5OC(CO)C(O)C(O)C5O)C(=O)C[C@@H]4[C@]3(C)C(=O)C[C@]12C` (stereo partly specified), the GI50 in the experiment on IGROV-1, in the experiment on LOX IMVI, in the experiment with UACC-62, in the experiment with SR, in the experiment on HCC 2998 and with NCI-H460 was > 100 µM (inactive) throughout. The GI50 with SNB-19, in the experiment with HT-29, with OVCAR-8, with NCI/ADR-RES, in the experiment on T47D and in the experiment with SNB-75 was > 100 µM (inactive) throughout. Besides, the GI50 with Malme-3M, in the experiment with UO-31 and in the experiment on NCI-H23 was > 100 µM (inactive) each time.

With `C=C1C(=O)O[C@H]2C1C[C@H](O)[C@@]1(C)OC1CC[C@@]1(C)O[C@H]21` (stereo partly specified), the GI50 in the experiment on IGROV-1 was 14.9 µM (inactive); in the experiment with UACC-62, 14.6 µM (inactive); in the experiment with SR, 17.8 µM (inactive); in the experiment with HCC 2998, 14.7 µM (inactive); in the experiment with NCI-H460 it was > 100 µM (inactive); in the experiment on HT-29 it was 32.5 µM (inactive). Moreover, the GI50 is 19 µM (inactive) in the experiment with OVCAR-8; 20.9 µM (inactive) with NCI/ADR-RES; 19.3 µM (inactive) with T47D; 80.4 µM (inactive) with SNB-75; 12 µM (inactive) in the experiment on Malme-3M; 17.1 µM (inactive) in the experiment with UO-31. For the same compound, the GI50 with NCI-H23 is 19.5 µM (inactive).

In the case of `NC(CCCCCP(=O)(O)O)C(=O)O` (stereo unspecified) [AP-7], the GI50 with IGROV-1 is > 100 µM (inactive); in the experiment with LOX IMVI it was > 100 µM (inactive); with UACC-62, 80.7 µM (inactive); in the experiment with SR, > 100 µM (inactive); in the experiment with HCC 2998, > 100 µM (inactive); with NCI-H460, > 100 µM (inactive). Further, the GI50 is > 100 µM (inactive) in the experiment with SNB-19; > 100 µM (inactive) in the experiment on HT-29; > 100 µM (inactive) with OVCAR-8; > 100 µM (inactive) in the experiment on NCI/ADR-RES; 83.8 µM (inactive) in the experiment on T47D; > 100 µM (inactive) with SNB-75. In addition, the GI50 in the experiment on UO-31 and in the experiment on NCI-H23 was > 100 µM (inactive) each time.
